tested on: L. donovani (MHOM/SD/62/1S-CL2D, LdBOB) axenic amastigotes; assay: Leishmania donovani axenic amastigote dose response assay (resazurin); format: cell-based; settings: -logIC50 mol against L. donovani (LdBOB) axenic amastigotes, read-out: pIC50 Axenic (converted)

Compound	IC50 [µM]
O=C(Nc1ccc(OC(F)(F)F)cc1)c1ccc(Br)s1 [ST/631944]	13.2
COc1ccc(Cl)cc1NC(=O)Nc1cccc(F)c1 [SC/109667]	11.5
O=C(Nc1ccc(F)c(Cl)c1)c1cc(-c2ccc(O)cc2)on1 [ST/1440432]	10.5
O=C(NCc1ccco1)c1ccccc1NS(=O)(=O)c1cccs1 [ST/662660]	20.4
N#Cc1ccc(NC(=O)c2cccs2)cc1C#N [ST/646239]	20.9
O=C(Nc1cccc(C(F)(F)F)c1)c1cc(-c2cccc(O)c2)on1 [ST/728737]	> 50
CC(=O)N1N=C(COc2ccc(Cl)c(C)c2)OC1c1ccc(C)o1 (stereo not drawn) [ST/1451045]	19.1
CN1CCN(CC(=O)Nc2ccc(C(F)(F)F)cc2)CC1c1ccccc1 (stereo not drawn) [ST/961463]	> 50
CC(=O)N1N=C(COc2ccccc2Br)OC1C=Cc1ccccc1 (stereo not drawn) [ST/1451035]	> 50
Cn1c(=O)c(Oc2ccc(Cl)cc2)c(O)c2ccccc21 [ST/832324]	> 50
Nc1ncc(-c2ccccc2)cc1-c1nc2ccccc2[nH]1 [U18123/163/3]	37.2
CN(C)CCNc1ccc2ncc(-c3ccc4ccccc4c3)n2n1 [ST/668081]	> 50
Cc1ccc2cc(C(=O)Nc3ccc(C)c(N)c3)sc2c1 [ST/551412]	20.4
COc1ccc2cc(C(=O)Nc3ccc(F)c(Cl)c3)[nH]c2c1 [ST/803999]	11.2
Cc1cc(Cl)ccc1NC(=O)CN(c1ccccc1C(=O)O)S(=O)(=O)c1cccs1 [N9272-3-4]	> 50
Cc1ccc(Nc2nc(C(N)=O)c(NC(=O)C3CCC3)s2)cc1 [ST/1548033]	> 50
CCOc1nc2ccccc2nc1NS(=O)(=O)c1ccccc1 [ST/646349]	22.9
O=c1nc(SCc2ccccc2Cl)c2c([nH]1)CCCC2 [ST/1287093]	> 50
Cc1cccc(Nc2cccc3c(=O)[nH][nH]c(=O)c23)c1C [78/118]	> 50
CCOc1cccc(C(=O)Nc2cc(-c3nc4ccccc4[nH]3)ccc2C)c1 [ST/591387]	15.8
O=c1cc(-c2ccccc2O)oc2ccccc12 [SC/32543]	> 50
CCc1cccc(NC(=O)Nc2cc(F)ccc2F)c1 [SC/109224]	15.1
O=S(=O)(Nc1cccc(F)c1CNCc1ccco1)c1ccccc1Cl [DS105792-055A7B42]	32.4
CN1CC[C@@H](Oc2cc(CNC(=O)c3ccc(Br)cc3)ccc2Cl)C1 [DZ203929-138A2]	> 50
CNC(=O)CN(C)c1nc(-c2cccs2)nc2sc(C)c(C)c12 [ST/1245806]	> 50

Compound	IC50 [µM]
O=S(=O)(Nc1cccc2nsnc12)c1cccs1 [SC/96769]	24.5
Cc1ccc2[nH]c(COc3ccc(Cl)cc3)nc2c1 [ST/743143]	29.5
COc1ccc(S(=O)(=O)Nc2ccccc2C(F)(F)F)c(Cl)c1Cl [ST/534228]	19.5
O=C(Nc1ccc(NC(=O)c2cccs2)cc1Cl)c1ccccc1 [ST/1125044]	> 50
CC(C(O)(Cn1cncn1)c1ccc(F)cc1F)S(C)(=O)=O (stereo not drawn) [JCH/31/2]	> 50
NC(=O)c1cc(-c2csc(-c3ccsc3)n2)ccc1O [ST/1241904]	20.9
O[C@@]1(c2ccc(F)cc2)CCCC[C@@H]1n1cncn1 [ST/2183803]	> 50
O[C@@](Cn1cncn1)(c1ccc(F)cc1F)C1CCOCC1 [RB/854/3]	> 50
CCc1noc2nc(C)nc(NC3CCCCCC3)c12 [ST/1113587]	46.8
N=c1nc2n(c(=N)[nH]1)NC(c1ccc(Cl)cc1)=CS2 [ST/1850161]	47.9
O=C(Nc1cc(Cl)c(O)c(Cl)c1)c1ccc(Br)cc1 [ST/869684]	17.8
O=C(NCc1ccccc1)c1sccc1NS(=O)(=O)c1ccccc1 [RF44798-098A22]	21.4
Nc1ccc(Br)cc1-c1nc(N)c2cc(Br)ccc2n1 [N4309-86-B1]	> 50
Cc1c(-c2noc(-c3ccc(OC(C)C)c(Cl)c3)n2)ccc2c1CCNC2 [N11266-30-A1]	22.4
CSc1nsc(NC(=O)Nc2ccc(Cl)cc2)n1 [ST/905433]	30.2
O=C(Nc1nnc(COc2ccc(F)cc2)s1)c1cnccn1 [ST/389620]	33.1
O=C(NCCc1ccccc1)c1ccccc1NS(=O)(=O)c1cccs1 [ST/648091]	18.6
COc1ccc(-c2ccc(S(=O)(=O)Nc3ncc(Cl)cc3Cl)s2)cc1 [DJ107456-088A34]	27.5
O=C(Nc1nnc(C(F)(F)F)s1)c1ccc(Br)s1 [ST/782334]	11.7
O=C1CCc2cc(-c3csc(-c4cccnc4)n3)ccc2N1 [R9196/29/59]	> 50
Fc1ccc(-c2nn3c(OCC(F)(F)F)cccc3c2-c2ccncc2)cc1 [U12546/102/3]	13.5
Nc1ccc(S(=O)(=O)Nc2ccccc2Oc2ccc(Cl)cc2Cl)cc1 [SC/79553]	10.5
O=C1CC(c2ccccc2)N(c2ccc(Cl)cc2)N1 (stereo not drawn) [0014C 75***]	26.9
Brc1ccc(OCc2nc3ccccc3[nH]2)cc1 [ST/839801]	49
COc1ccc(S(=O)(=O)Nc2cc(Cl)ccc2C)c(C)c1C [ST/724177]	19.1

Compound	IC50 [µM]
Nc1ccc(-c2nc3cc(Cl)cc(Cl)c3o2)cc1 [ST/525525]	49
COc1ccccc1-c1nc(-c2ccc(O)c(C(N)=O)c2)cs1 [ST/1261284]	33.1
O=C(Nc1oc2ccc(Cl)cc2c(=O)c1-c1ccc(Br)cc1)c1ccco1 [ST/802162]	25.1
O=C(NC1=NN(c2ccc(Cl)c(Cl)c2)CC1)c1ccncc1 [N11828-23-3]	> 50
CCN(C(=O)Cc1c(C(=O)O)[nH]c2ccccc12)c1cc(C)ccc1C [ST/728445]	18.2
O=C(NNC(=O)c1c(O)c2ccccc2[nH]c1=O)c1ccc(Cl)cc1Cl [SC/110880]	> 50
CNc1nc(N)c([N+](=O)[O-])c(Nc2cccc(Cl)c2)n1 [ST/537896]	19.5
O=S(=O)(Nc1cc(Cl)ccc1O)c1ccc(Cl)c(Cl)c1 [R10040/200/6]	12
O=c1c(O)c(-c2ccccc2)oc2cc(O)cc(O)c12 [ST/2097267]	20.4
O=C(NCc1cccs1)c1sccc1NS(=O)(=O)c1ccccc1 [RF44798-098A21]	12.3
O=C(O)Cc1c(-c2cccs2)nc2ccccc2c1-c1ccccc1 [ST/1080669]	12.9
FC(F)(F)c1ccc(Nc2nc(-c3ccncc3)cs2)cc1 [ST/510927]	27.5
COc1cc2c(cc1S(=O)(=O)c1ccc(COc3cccc(F)c3)cc1)CCN(C)CC2 [DC101675-085A1]	> 50
O=C(Nc1ccon1)c1cc2c(s1)CCCCCC2 [ST/1100321]	19.5
Cc1oc2cc(O)ccc2c(=O)c1-c1nc2ccccc2s1 [ST/517902]	> 50
COc1cccc2[nH]c(C(=O)Nc3cccc(Cl)c3)cc12 [ST/803957]	12.3
Cc1cc(O)c(Cl)c(C)c1NS(=O)(=O)c1ccc(Br)cc1 [ST/835722]	26.9
CN1CCN(c2ccc3ncc(-c4cccc(NC(=O)Cc5cccs5)c4)n3n2)CC1 [R11466/151/4]	> 50
CSc1ccccc1NS(=O)(=O)c1cccs1 [ST/867134]	> 50
c1ccc(N2CCN(c3ncc(-c4cccs4)cn3)CC2)nc1 [SC/89927]	> 50
CCOc1cc2c(cc1S(=O)(=O)c1ccc(COc3ccc(F)cc3)cc1)CCN(C)CC2 [AL101938-139A1]	31.6
O=C(c1ccco1)c1cn(Cc2ccc(F)cc2)c2ccccc12 [ST/727705]	28.8
N#Cc1ccc(NCCOc2ccc3ccccc3c2)nc1 [ST/1543199]	> 50
CC1CCc2c(sc(NC(=O)c3cccs3)c2C#N)C1 (stereo not drawn) [SC/95708]	> 50
O=C(c1ccccc1)N1C(=O)C(c2ccccc2)Oc2ccccc21 (stereo not drawn) [ST/629481]	24.5

Compound	IC50 [µM]
CC(=O)N1N=C(c2ccccc2Cl)OC1COc1ccc(Cl)cc1 (stereo not drawn) [ST/1451125]	15.8
Fc1ccc(CNc2ncc(-c3ccncc3)c(-c3ccoc3)n2)cc1 [ST/945994]	> 50
Fc1ccc(-c2nc(-c3cccs3)[nH]c2-c2ccncc2)cc1 [JMS-15898-298-1]	20.9
O=S(=O)(Nc1ccccc1C(F)(F)F)c1ccc(-c2cccs2)s1 [DJ107456-053A67]	14.8
Cc1cc(C)n2nc(S(=O)(=O)Nc3c(Cl)cccc3Cl)nc2n1 [ST/833860]	41.7
Cc1cc(Cl)ccc1NC(=O)COc1ccccc1NS(=O)(=O)c1cccs1 [N6862-82-1]	20
CCn1cc(C(=O)O)c(=O)c2cc(F)ccc21 [ST/1766829]	24.5
O=C(c1cccs1)c1conc1C(=O)c1ccc(Br)cc1 [ST/261533]	> 50
C=CCNc1nc(N)c([N+](=O)[O-])c(Nc2cccc(F)c2)n1 [ST/892571]	> 50
Cc1oc(-c2ccc(Cl)cc2)cc1C(=O)NCC(=O)c1cccs1 [ST/1260077]	34.7
O=C(Nc1ccccc1C(=O)NCc1ccc(Cl)cc1)c1ccco1 [ST/771851]	> 50
O=C(NC1=NN(c2ccc(Cl)c(Cl)c2)CC1)c1ncccn1 [N7030-10-104]	> 50
Nc1nonc1-c1nc2c(-c3cccc(F)c3)nccc2n1C1CCNCC1 [IS203450-048A1]	40.7
CCOc1cc(S(=O)(=O)N2CCN(Cc3ccc4c(c3)OCO4)CC2)ccc1Br [ST/910382]	21.4
CNS(=O)(=O)c1ccc(NC(=O)c2csc(C)c2-c2ccccc2)cc1 [ST/937316]	38.9
O=C1CCc2cc(-c3csc(-c4ccsc4)n3)ccc2N1 [ST/1544102]	> 50
O=S(=O)(Nc1cccc2nsnc12)c1ccccc1 [ST/663705]	39.8
OC(Cn1cncn1)(c1ccc(F)cc1F)C1CCCS1 (stereo not drawn) [JJP/1818/3]	> 50
CC1CSC(N(C(=O)CCc2ccco2)c2ccc(Cl)cc2)=N1 (stereo not drawn) [ST/816400]	21.9
c1ccc2oc(-c3ccnc4nncn34)cc2c1 [ST/1803771]	> 50
Cc1ccccc1NC(=O)COc1ccccc1NS(=O)(=O)c1cccs1 [N6862-82-2]	> 50
CCn1ncc2c(N[C@H]3CCCC[C@H]3C(=O)O)c(C(=O)NCc3ccccc3)cnc21 [R10565/35/4]	> 50
COc1cccc(C(=O)Nc2nc(-c3cccs3)ns2)c1 [ST/1197587]	21.9
Cc1cccc(C(=O)Nc2nc(-c3cccs3)ns2)c1 [ST/1197585]	30.9

From paper PMC5834442, “Identifying inhibitors of the Leishmania inositol phosphorylceramide synthase with antiprotozoal activity using a yeast-based assay and ultra-high throughput screening platform” (Scientific Reports, 2018)
